23 compounds from ChEMBL document CHEMBL1136427, “Unique spirocyclopiperazinium salt I: synthesis and structure-activity relationship of spirocyclopiperazinium salts as analgesics” (2003) can be followed below.

What all share (assay type): functional
In experiment [1] the test system is Mus sp. Kind of experiment: Analgesic activity was evaluated in mice after s.c. administration of 20 mg/kg. The settings on record: for inhibition in vivo at 20 mg/kg: Mus sp., sc; for Inhibition: 20 mg/kg.
In experiment [2] the test system is Mus sp. Kind of experiment: Sedative activity was evaluated in mice after s.c. administration of 20 mg/kg. The settings on record: for inhibition in vivo at 20 mg/kg: Mus sp., sc; for Inhibition: 20 mg/kg.
Experiment [3] deals with Mus sp. Description: Sedative activity was evaluated in mice after s.c. administration of 10 mg/kg. The conditions noted are these: sc.
Experiment [4] has as its system Mus sp. Kind of experiment: Analgesic activity was evaluated in mice after s.c. administration of 10 mg/kg. The settings on record: sc.

On to `c1ccc(OCCCCN2CC[N+]3(CCCC3)CC2)cc1`, for which the inhibition in vivo – broadly, the change of the read-out against control, counted positive when it falls – at 20 mg/kg was 9% in experiment [1] and 4% in experiment [2].

`C=CCN1CC[N+]2(CCCC2)CC1`: the values for the inhibition in vivo at 10 mg/kg in experiment [3] and in experiment [4] were 0% and 45%, respectively. The inhibition in vivo at 20 mg/kg in experiment [1] amounted to 100%; in experiment [2], 0%.

Turning to `O=C1CCC(=O)N1CCCN1CC[N+]2(CCCC2)CC1`, the values for the inhibition in vivo at 20 mg/kg in experiment [1] and in experiment [2] were 20% and 10%, respectively.

Take `O=C(CCN1CC[N+]2(CCCC2)CC1)c1ccc(O)cc1`: the inhibition in vivo at 20 mg/kg in experiment [1] worked out at 100%; in experiment [2], 85%. In addition, the inhibition in vivo at 10 mg/kg in experiment [4] was determined as 77%.

For the compound `O=C(CCN1CC[N+]2(CCCC2)CC1)c1ccoc1`, the inhibition in vivo at 20 mg/kg in experiment [1] amounted to 15%; in experiment [2], 0%.

Consider `O=C(CCN1CC[N+]2(CCCC2)CC1)c1cccc(O)c1`, for which the figures for the inhibition in vivo at 20 mg/kg in experiment [1] and in experiment [2] were 14% and 13%, respectively.

Regarding `O=C(CCN1CC[N+]2(CCCC2)CC1)c1cccc([N+](=O)[O-])c1`, the inhibition in vivo at 20 mg/kg in experiment [1] was determined as 59%; in experiment [2] it was 0%.

For `O=[N+]([O-])c1cccc(/C=C/CN2CC[N+]3(CCCC3)CC2)c1`, the inhibition in vivo at 20 mg/kg in experiment [1] came out at 32%; in experiment [2], 12%.

On to `C=C(C)CN1CC[N+]2(CCCC2)CC1`, for which the inhibition in vivo at 20 mg/kg in experiment [1] and in experiment [2] was 0% each time.

In the case of `O=C(CCN1CC[N+]2(CCCC2)CC1)c1ccccc1`, the values for the inhibition in vivo at 20 mg/kg in experiment [1] and in experiment [2] were 25% and 11%, respectively.

For `Clc1ccc(/C=C/CN2CC[N+]3(CCCC3)CC2)cc1`, the figures for the inhibition in vivo at 20 mg/kg in experiment [1] and in experiment [2] were 19% and 12%, respectively.

Regarding `Cc1ccc(C(=O)CCN2CC[N+]3(CCCC3)CC2)cc1`, the inhibition in vivo at 20 mg/kg in experiment [1] was 25%; in experiment [2], 14%.

As for `OCCN1CC[N+]2(CCCC2)CC1`, the inhibition in vivo at 20 mg/kg turned out to be 10% in experiment [1] and 0% in experiment [2].

`O=[N+]([O-])c1ccc(/C=C/CN2CC[N+]3(CCCC3)CC2)cc1`: the inhibition in vivo at 20 mg/kg in experiment [1] came out at 24%; in experiment [2] it was 10%.

For the compound `O=C(CCN1CC[N+]2(CCCC2)CC1)c1ccsc1`, the inhibition in vivo at 20 mg/kg in experiment [1] worked out at 12%; in experiment [2], 3%.

Take `CCN1CC[N+]2(CCCC2)CC1`: the inhibition in vivo at 20 mg/kg in experiment [1] and in experiment [2] was 0% throughout.

As for `Clc1cccc(/C=C/CN2CC[N+]3(CCCC3)CC2)c1`, the figures for the inhibition in vivo at 20 mg/kg in experiment [1] and in experiment [2] were 42% and 51%, respectively.

With `Clc1ccccc1/C=C/CN1CC[N+]2(CCCC2)CC1`, the inhibition in vivo at 20 mg/kg is 27% in experiment [1] and 59% in experiment [2].

`C1CC[N+]2(C1)CCN(CCC1OCCO1)CC2`: the inhibition in vivo at 20 mg/kg in experiment [1] worked out at 36%; in experiment [2] it was 25%.

Regarding `C(=C\c1ccccc1)/CN1CC[N+]2(CCCC2)CC1`, the figures for the inhibition in vivo at 20 mg/kg in experiment [1] and in experiment [2] were 0% and 33%, respectively.

Regarding `O=C(CCN1CC[N+]2(CCCC2)CC1)c1ccc([N+](=O)[O-])cc1`, the inhibition in vivo at 20 mg/kg in experiment [1] is 12%; in experiment [2], 35%.

In the case of `OC(CCl)CN1CC[N+]2(CCCC2)CC1.[Br-]` (stereo in doubt; 3), the results for the Inhibition in experiment [1] and in experiment [2] were 64% and 57%, respectively.

With `OC(CCl)CN1CC[N+]2(CCCC2)CC1.[Br-]` (stereo in doubt; 7a), the Inhibition in experiment [1] and in experiment [2] was 0% in each case.
